experiment: Iron sequestering activity of the compound assessed as [Fe(H2O)6]3+ formation at 10^-5 M at pH 7.4 by spectrophotometrically in presence of 10^-6 M total iron concentration

First: O=C(NCc1cc(CNC(=O)c2cccc(O)c2O)cc(CNC(=O)c2cccc(O)c2O)c1)c1cccc(O)c1O
Second: O=C(NCc1cc(CNC(=O)c2cc(S(=O)(=O)O)cc(O)c2O)cc(CNC(=O)c2cc(S(=O)(=O)O)cc(O)c2O)c1)c1cc(S(=O)(=O)O)cc(O)c1O
The pM of the first is lower: 29.1 for the first, 29.4 for the second.

First: CN(C)C(=O)c1cc(S(=O)(=O)O)cc(O)c1O
Second: O=C(NCCCCN(CCCNC(=O)c1cc(S(=O)(=O)O)cc(O)c1O)C(=O)c1cc(S(=O)(=O)O)cc(O)c1O)c1cc(S(=O)(=O)O)cc(O)c1O
The pM of the first is lower: 19.2 for the first, 28.5 for the second.

Going from `O=C(N[C@H]1COC(=O)[C@@H](NC(=O)c2cccc(O)c2O)COC(=O)[C@@H](NC(=O)c2cccc(O)c2O)COC1=O)c1cccc(O)c1O` to `O=C(NCc1cc(S(=O)(=O)O)cc(O)c1O)c1cc(C(=O)NCc2cc(S(=O)(=O)O)cc(O)c2O)cc(C(=O)NCc2cc(S(=O)(=O)O)cc(O)c2O)c1`, the pM falls from 35.5 to 25.1.

For `CC(=O)N(O)CCCCCNC(=O)CCC(=O)N(O)CCCCCNC(=O)CCC(=O)N(O)CCCCCN`, the pM was 26.6.
